molecular target: ULK1 (Homo sapiens (Human), UniProt O75385); assay: ULK1 inhibition assay (Table 1); assay type: biochemical; conditions: * = tested as a mixture of regioisomers
Sequence (O75385 whole entry, species assumed): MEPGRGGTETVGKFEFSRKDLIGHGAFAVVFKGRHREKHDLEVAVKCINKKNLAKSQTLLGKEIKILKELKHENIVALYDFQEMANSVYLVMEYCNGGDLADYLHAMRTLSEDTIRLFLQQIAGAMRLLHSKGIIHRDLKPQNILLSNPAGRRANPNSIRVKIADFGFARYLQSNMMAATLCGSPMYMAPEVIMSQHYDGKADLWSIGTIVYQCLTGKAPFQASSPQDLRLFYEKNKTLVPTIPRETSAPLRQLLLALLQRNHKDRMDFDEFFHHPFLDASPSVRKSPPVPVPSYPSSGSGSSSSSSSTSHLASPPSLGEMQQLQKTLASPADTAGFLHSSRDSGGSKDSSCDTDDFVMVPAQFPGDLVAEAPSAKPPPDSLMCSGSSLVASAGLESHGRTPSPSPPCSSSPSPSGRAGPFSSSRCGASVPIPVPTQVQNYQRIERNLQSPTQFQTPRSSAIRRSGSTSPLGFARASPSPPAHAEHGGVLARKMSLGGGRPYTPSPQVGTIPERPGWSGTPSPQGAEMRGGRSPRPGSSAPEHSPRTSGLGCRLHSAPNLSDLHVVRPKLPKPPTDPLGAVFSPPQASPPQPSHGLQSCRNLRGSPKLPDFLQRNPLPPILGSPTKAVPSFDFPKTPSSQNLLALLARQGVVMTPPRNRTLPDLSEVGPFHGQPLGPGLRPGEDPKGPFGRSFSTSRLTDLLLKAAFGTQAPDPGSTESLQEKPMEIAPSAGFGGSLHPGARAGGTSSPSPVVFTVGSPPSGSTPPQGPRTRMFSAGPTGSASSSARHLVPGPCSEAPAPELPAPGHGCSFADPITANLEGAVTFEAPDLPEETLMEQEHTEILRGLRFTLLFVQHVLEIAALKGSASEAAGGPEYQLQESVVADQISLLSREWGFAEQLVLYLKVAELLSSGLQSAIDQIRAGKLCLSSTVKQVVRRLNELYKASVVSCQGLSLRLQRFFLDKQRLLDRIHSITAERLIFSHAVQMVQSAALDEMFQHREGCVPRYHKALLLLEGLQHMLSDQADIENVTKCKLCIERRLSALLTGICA

SMILES	IC50 [µM]
CNC(=O)c1ccccc1Oc1nc(Nc2cc(OC)ccc2C)ncc1C(F)(F)F [compound 101, 2-((2-((5-methoxy-2-methylphenyl)amino)-5-(trifluoromethyl)pyrimidin-4-yl)oxy)-N-methylbenzamide]	> 2
CNC(=O)c1ccccc1Oc1nc(Nc2ccc(C)c(Br)c2)ncc1C(F)(F)F [compound 102, 2-((2-((3-bromo-4-methylphenyl)amino)-5-(trifluoromethyl)pyrimidin-4-yl)oxy)-N-methylbenzamide]	> 2
CNC(=O)c1ccccc1Oc1nc(Nc2ccccc2OC)ncc1C(F)(F)F [compound 103, 2-((2-((2-methoxyphenyl)amino)-5-(trifluoromethyl)pyrimidin-4-yl)oxy)-N-methylbenzamide]	> 2
CNC(=O)c1ccccc1Oc1nc(Nc2cc(C)ccc2C)ncc1C(F)(F)F [compound 104, 2-((2-((2,5-dimethylphenyl)amino)-5-(trifluoromethyl)pyrimidin-4-yl)oxy)-N-methylbenzamide]	> 2
CNC(=O)c1ccccc1Oc1nc(Nc2ccc(C)c(C)c2)ncc1C(F)(F)F [compound 106, 2-((2-((3,4-dimethylphenyl)amino)-5-(trifluoromethyl)pyrimidin-4-yl)oxy)-N-methylbenzamide]	0.2 to 2
CNC(=O)c1ccccc1Oc1nc(Nc2ccc(C)cc2Cl)ncc1C(F)(F)F [compound 107, 2-((2-((2-chloro-4-methylphenyl)amino)-5-(trifluoromethyl)pyrimidin-4-yl)oxy)-N-methylbenzamide]	> 2
CNC(=O)c1ccccc1Oc1nc(Nc2ccc3c(c2)CCC(=O)N3)ncc1C(F)(F)F [compound 110, N-methyl-2-((2-((2-oxo-1,2,3,4-tetrahydroquinolin-6-yl)amino)-5-(trifluoromethyl)pyrimidin-4-yl)oxy)benzamide]	0.2 to 2
CNC(=O)c1ccccc1Oc1nc(Nc2ccccc2)ncc1Br [compound 111, 2-((5-bromo-2-(phenylamino)pyrimidin-4-yl)oxy)-N-methyl benzamide]	> 2
CNC(=O)c1ccccc1Oc1nc(Nc2cc(Br)ccc2C)ncc1Br [compound 112, 2-((5-bromo-2-((5-bromo-2-methylphenyl)amino)pyrimidin-4-yl)oxy)-N-methylbenzamide]	> 2
CNC(=O)c1ccccc1Oc1nc(Nc2cccc(F)c2F)ncc1C(F)(F)F [compound 113, 2-((2-((2,3-difluorophenyl)amino)-5-(trifluoromethyl)pyrimidin-4-yl)oxy)-N-methylbenzamide]	> 2
Clc1cnc(Nc2ccccc2)nc1Nc1ccccc1 [compound 114, 5-chloro-N^2,N^4-diphenylpyrimidine-2,4-diamine]	> 2
CNC(=O)c1ccccc1Sc1nc(Nc2cc(OC)ccc2C)ncc1C(F)(F)F [compound 117, 2-((2-((5-methoxy-2-methylphenyl)amino)-5-(trifluoromethyl)pyrimidin-4-yl)thio)-N-methylbenzamide]	> 2
COc1cccc(Nc2nc(Nc3ccc4c(c3)CCC(=O)N4)ncc2C(F)(F)F)c1 [compound 119, 6-((4-((3-methoxyphenyl)amino)-5-(trifluoromethyl)pyrimidin-2-yl)amino)-3,4-dihydroquinolin-2(1H)-one]	< 0.2
O=C1CCc2cc(Nc3ncc(C(F)(F)F)c(Nc4cccc(OCc5ccccc5)c4)n3)ccc2N1 [compound 121, 6-((4-((3-(benzyloxy)phenyl)amino)-5-(trifluoromethyl)pyrimidin-2-yl)amino)-3,4-dihydroquinolin-2(1H)-one]	0.2 to 2
CNC(=O)c1cccc(Oc2nc(Nc3ccc4c(c3)CCC(=O)N4)ncc2C(F)(F)F)c1 [compound 122, N-methyl-3-((2-((2-oxo-1,2,3,4-tetrahydroquinolin-6-yl)amino)-5-(trifluoromethyl)pyrimidin-4-yl)oxy)benzamide]	0.2 to 2
Cc1ccc(Nc2nc(Nc3ccc4c(c3)CCC(=O)N4)ncc2C(F)(F)F)cc1C [compound 125, 6-((4-((3,4-dimethylphenyl)amino)-5-(trifluoromethyl)pyrimidin-2-yl)amino)-3,4-dihydroquinolin-2(1H)-one]	< 0.2
CNC(=O)c1cccc(Nc2nc(Nc3ccc4c(c3)CCC(=O)N4)ncc2C(F)(F)F)c1 [compound 128, N-methyl-3-((2-((2-oxo-1,2,3,4-tetrahydroquinolin-6-yl)amino)-5-(trifluoromethyl)pyrimidin-4-yl)amino)benzamide]	< 0.2
O=C1CCc2cc(Nc3ncc(C(F)(F)F)c(Nc4ccc5c(c4)CCC5)n3)ccc2N1 [compound 129, 6-((4-((2,3-dihydro-1H-inden-5-yl)amino)-5-(trifluoromethyl)pyrimidin-2-yl)amino)-3,4-dihydroquinolin-2(1H)-one]	< 0.2
CC(=O)Nc1ccc(Nc2nc(Nc3ccc4c(c3)CCC(=O)N4)ncc2C(F)(F)F)cc1 [compound 132, N-(4-((2-((2-oxo-1,2,3,4-tetrahydroquinolin-6-yl)amino)-5-(trifluoromethyl)pyrimidin-4-yl)amino)phenyl)acetamide]	< 0.2
COc1cccc(Nc2nc(Nc3ccc4c(c3)OCCO4)ncc2C(F)(F)F)c1 [compound 133, N^2-(2,3-dihydrobenzo[b][1,4]dioxin-6-yl)-N^4-(3-methoxyphenyl)-5-(trifluoromethyl)pyrimidine-2,4-diamine]	< 0.2
O=C1CCc2cc(Nc3ncc(Cl)c(Nc4ccc5c(c4)CCC(=O)N5)n3)ccc2N1 [compound 134, 6,6′-((5-chloropyrimidine-2,4-diyl)bis(azanediyl))bis(3,4-dihydroquinolin-2(1H)-one)]	< 0.2
COc1cnc(Nc2ccc3c(c2)CCC(=O)N3)nc1Nc1ccc2c(c1)CCC(=O)N2 [compound 135, 6,6′-((5-methoxypyrimidine-2,4-diyl)bis(azanediyl))bis(3,4-dihydroquinolin-2(1H)-one)]	> 2
COc1cccc(Nc2nc(Nc3ccc4c(c3)CCC(=O)N4)ncc2Br)c1 [compound 142, 6-((5-bromo-4-((3-methoxyphenyl)amino)pyrimidin-2-yl)amino)-3,4-dihydroquinolin-2(1H)-one]	< 0.2
CS(=O)(=O)c1cccc(CNc2nc(Nc3ccc4[nH]ccc4c3)ncc2Br)c1 [compound 153, 5-bromo-N^2-(1H-indol-5-yl)-N^4-(3-(methylsulfonyl)benzyl) pyrimidine-2,4-diamine]	> 2
Brc1cnc(Nc2ccc3[nH]ccc3c2)nc1Nc1ccccn1 [compound 154, 5-bromo-N^2-(1H-indol-5-yl)-N^4-(pyridin-2-yl)pyrimidine-2,4-diamine]	< 0.2
O=C1CCc2cc(Nc3ncc(Br)c(Nc4ccccn4)n3)ccc2N1 [compound 155, 6-((5-bromo-4-(pyridin-2-ylamino)pyrimidin-2-yl)amino)-3,4-dihydroquinolin-2(1H)-one]	< 0.2
COc1ccc(Nc2nc(Nc3ccc4c(c3)CCC(=O)N4)ncc2Br)cn1 [compound 156, 6-((5-bromo-4-((6-methoxypyridin-3-yl)amino)pyrimidin-2-yl)amino)-3,4-dihydroquinolin-2(1H)-one]	< 0.2
O=C1CCc2cc(Nc3ncc(Br)c(NC4CC4)n3)ccc2N1 [compound 159, 6-((5-bromo-4-(cyclopropylamino)pyrimidin-2-yl)amino)-3,4-dihydroquinolin-2(1H)-one]	< 0.2
